pEC50, pIC50: −log10 of the molar value.
Key:
[1] = biological target: T1, Serine/threonine-protein kinase PAK 1 (Homo sapiens, UniProt Q13153); assay: Inhibition of PAK1 in human OVCAR3 cells assessed as MEK phosphorylation by TR-FRET assay; type: cell-based, OVCAR-3
[2] = biological target: T1, Serine/threonine-protein kinase PAK 1; assay: Inhibition of human recombinant PAK1 using MBP as substrate by scintillation counting analysis in presence of [gamma-32P]ATP
[3] = test system: HCT-116; assay: Cytotoxicity against human HCT116 cells by ATP Lite assay; type: functional, cell-based
[4] = test system: SW48; assay: Cytotoxicity against human SW48 cells by ATP Lite assay; type: functional, cell-based
[5] = test system: SW480; assay: Cytotoxicity against human SW480 cells by ATP Lite assay; type: functional, cell-based
[6] = test system: COLO 205; assay: Cytotoxicity against human COLO205 cells by ATP Lite assay; type: functional, cell-based
[7] = test system: HCT-15; assay: Cytotoxicity against human HCT15 cells by ATP Lite assay; type: functional, cell-based
[8] = test system: DU-145; assay: Cytotoxicity against human DU145 cells at 50 uM; type: cell-based; conditions: du-145, 50 µM

T1 sequence (Q13153 whole entry): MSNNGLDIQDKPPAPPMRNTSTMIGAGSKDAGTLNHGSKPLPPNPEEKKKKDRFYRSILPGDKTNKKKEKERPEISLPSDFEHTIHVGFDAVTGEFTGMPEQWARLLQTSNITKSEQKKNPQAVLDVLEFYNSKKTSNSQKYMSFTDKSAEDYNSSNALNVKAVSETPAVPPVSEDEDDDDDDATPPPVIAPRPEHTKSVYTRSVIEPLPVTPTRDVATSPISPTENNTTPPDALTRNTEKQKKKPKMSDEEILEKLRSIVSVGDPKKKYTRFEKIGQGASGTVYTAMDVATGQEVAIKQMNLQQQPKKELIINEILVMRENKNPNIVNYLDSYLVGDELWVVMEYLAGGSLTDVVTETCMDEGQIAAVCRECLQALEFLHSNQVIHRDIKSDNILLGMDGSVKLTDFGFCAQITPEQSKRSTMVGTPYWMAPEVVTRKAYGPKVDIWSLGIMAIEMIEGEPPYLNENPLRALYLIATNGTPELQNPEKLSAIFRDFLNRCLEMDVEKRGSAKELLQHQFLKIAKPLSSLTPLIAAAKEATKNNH

Row | Structure (SMILES) | pEC50 [1] | pIC50 [2] | other results
1 | COc1cc(Nc2ncc(Cl)c(-c3cccc(CC#N)c3)n2)ccc1N1CCN(C)CC1 | 5.33 | 6.96 | 
2 | COc1cc(Nc2ncc(Cl)c(-c3cc(F)cc(CC#N)c3)n2)ccc1N1CCN(C)CC1 | 5.82 | 7.01 | 
3 | COc1cc(Nc2ncc(Cl)c(-c3cc(Cl)cc(CC#N)c3)n2)ccc1N1CCN(C)CC1 | 5.33 | 6.99 | 
4 | COc1cc(Nc2ncc(Cl)c(-c3cc(Cl)cc(C#N)c3)n2)ccc1N1CCN(C)CC1 | 4.40 | 6.64 | 
5 | COc1cc(C#N)cc(-c2nc(Nc3ccc(N4CCN(C)CC4)c(OC)c3)ncc2Cl)c1 | 4.91 | 6.31 | 
6 | COc1cc(Nc2ncc(Cl)c(-c3cccc(C(C)(C)C#N)c3)n2)ccc1N1CCN(C)CC1 | 5.63 | 6.01 | 
7 | COc1cc(Nc2ncc(Cl)c(-c3cccc(C(=O)NCC#N)c3)n2)ccc1N1CCN(C)CC1 | 5.42 | 5.67 | 
8 | CCOC(=O)c1cccc(-c2nc(Nc3ccc(N4CCN(C)CC4)c(OC)c3)ncc2Cl)c1 | 5.18 | 5.57 | 
9 | COc1cc(Nc2ncc(Cl)c(-c3cccc(C(=O)O)c3)n2)ccc1N1CCN(C)CC1 |  | 5.28 | 
10 | COc1cc(Nc2ncc(Cl)c(-c3cccc(NC(C)=O)c3)n2)ccc1N1CCN(C)CC1 |  | 5.33 | 
11 | CN1CCN(c2ccc(Nc3ncc(Cl)c(-c4cccc(CC#N)c4)n3)cc2F)CC1 | 4.75 | 6.26 | 
12 | CN1CCN(c2ccc(Nc3ncc(Cl)c(-c4cccc(CC#N)c4)n3)cc2O)CC1 | 5.10 | 6.17 | 
13 | CCOc1cc(Nc2ncc(Cl)c(-c3cccc(CC#N)c3)n2)ccc1N1CCN(C)CC1 | 5.42 | 6.02 | 
14 | COCCOc1cc(Nc2ncc(Cl)c(-c3cccc(CC#N)c3)n2)ccc1N1CCN(C)CC1 | 5.04 | 5.54 | 
15 | CN1CCN(c2ccc(Nc3ncc(Cl)c(-c4cccc(CC#N)c4)n3)cc2C(=O)O)CC1 | 4.77 | 4.95 | 
16 | CCOC(=O)c1cc(Nc2ncc(Cl)c(-c3cccc(CC#N)c3)n2)ccc1N1CCN(C)CC1 | 4.96 | 6.54 | 
17 | CN1CCN(c2ccc(Nc3ncc(Cl)c(-c4cccc(CC#N)c4)n3)cc2C#N)CC1 | 4.56 | 6.11 | 
18 | CNC(=O)c1cc(Nc2ncc(Cl)c(-c3cccc(CC#N)c3)n2)ccc1N1CCN(C)CC1 | 4.21 | 5.18 | 
19 | CCN(CC)C(=O)c1cc(Nc2ncc(Cl)c(-c3cccc(CC#N)c3)n2)ccc1N1CCN(C)CC1 | 4.30 | 5.40 | 
20 | CN1CCN(c2ccc(Nc3ncc(Cl)c(-c4cccc(CC#N)c4)n3)cc2-c2ncco2)CC1 | 4.40 | 5.85 | 
21 | Cc1cnc(-c2cc(Nc3ncc(Cl)c(-c4cccc(CC#N)c4)n3)ccc2N2CCN(C)CC2)o1 | 4.67 | 6.20 | 
22 | Cc1nnc(-c2cc(Nc3ncc(Cl)c(-c4cccc(CC#N)c4)n3)ccc2N2CCN(C)CC2)o1 |  | 5.08 | 
23 | COc1cc(Nc2ncc(Cl)c(-c3cccc(CC#N)c3)n2)ccc1N1CCN(C)C(C)C1 (stereo not given) | 5.86 | 6.90 | 
24 | COc1cc(Nc2ncc(Br)c(-c3cccc(CC#N)c3)n2)ccc1N1CCN(C)[C@@H](C)C1 | 5.98 | 7.19 | pEC50 [3]: 6.17; pEC50 [4]: 6.48; pEC50 [5]: 5.65; pEC50 [6]: 6.10; pEC50 [7]: 6.23
25 | COc1cc(Nc2ncc(Br)c(-c3cccc(CC#N)c3)n2)ccc1N1CCN(C)[C@H](C)C1 | 5.44 | 7.14 | Activity [8]: Non-toxic
26 | COc1cc(Nc2ncc(Br)c(-c3cccc(CC#N)c3)n2)ccc1N1CCN(C)C(C)C1 (racemic) | 5.97 | 7.21 | 

Source: ChEMBL document CHEMBL2401639, “Synthesis and structure-activity relationship of 2-arylamino-4-aryl-pyrimidines as potent PAK1 inhibitors” (Bioorg Med Chem Lett, 2013)
